{"source": "patent US20260193619A1", "about": "“CULTURE MEDIUM COMPOSITION” (priority 2023, published 2026)", "key": {"[1]": {"test_system": "Human adenovirus 32", "assay": "Production of adenovirus in HEK293 by adding sodium dichloroacetate in suspension culture system", "assay_type": "cell-based", "conditions": "HEK293 2.sus, CDM4HEK293 with or without sodium dichloroacetate, MOI 0.1", "protocol": "In the following Example, the ability of human embryonic kidney cell 293 (HEK293) to produce adenovirus can be evaluated using sodium dichloroacetate. […] The cell number is measured using a hemocytometer and glutamine-containing 293 SFM II is added to 3×10^5 cells/mL. […] The cell number is measured using a hemocytometer and the culture solution is added to 3×10^5 cells/mL. 5 ML of the adjusted cell suspension is added to two Petri dishes and culturing with shaking (50 rpm) is performed in a CO2 incubator for 3-4 days. • (11) After culturing, steps (8) to (10) are repeated three times. • (12) After culturing for 3 days, the cell number is measured (FIG. 1) and adjusted to 1×10^5 cells/ml using CDM4HEK293 with or without addition of sodium dichloroacetate, and 5 mL thereof is added per Petri dish. […]"}, "[2]": {"test_system": "HEK293", "assay": "Effect of sodium dichloroacetate on proliferation of HEK293 in suspension culture (viable cell density)", "assay_type": "cell-based, human", "conditions": "HEK293 (Viral Production Cells 2.0), Viral Production Medium + 5 mM sodium dichloroacetate vs medium without, 3 days, FIG. 1", "protocol": "(§1) In the following Example 1, the ability of human embryonic kidney cell 293 (HEK293) to produce AAV was evaluated using sodium dichloroacetate. The reagents, cells, and medium used are as follows: • Sodium dichloroacetate: Sodium dichloroacetate (FUJIFILM Wako Pure Chemical Industries, Ltd., 326-87772) • HEK293: Viral Production Cells 2.0 (Thermo Fisher Scientific, A49784) • medium for HEK293: Viral Production Medium (Thermo Fisher Scientific: A4817901)\n(§2) Viral Production Cells 2.0 were seeded in 30 mL of Viral Production Medium supplemented with GlutaMAXIM Supplement (Thermo Fisher Scientific: 35050061) to a final concentration of 4 mM in a 125 mL Erlenmeyer flask (VIOLAMO, SEF125V). The cells were then cultured in an incubator set at 37° C., 8% CO2 under stirring for two passages. […] On day 3, the number of viable cells was measured using a viable cell autoanalyzer Vi-CELL BLU (manufactured by Becman). […] 2 (Takara Bio: 6233), and the AAV8 genome titer was measured using 7500 Fast Real-Time PCR System (Thermo Fisher Scientific: 4357362). In addition, the number of viral particles was also measured using AAV-8 Titration ELISA Kit (PROGEN Biotechnik: PRAAV8). The full/empty capsid ratio (full capsid ratio) was calculated therefrom."}, "[3]": {"test_system": "AAV8", "assay": "Production of AAV8 in HEK293 by adding sodium dichloroacetate (genome titer by real-time PCR, particles by ELISA, full capsid ratio)", "assay_type": "cell-based, human", "conditions": "HEK293, 5 mM sodium dichloroacetate, 3 days after transfection, medium without DCA = 100%", "protocol": "as §1, §2"}}, "data": [{"compound": "O=C([O-])C(Cl)Cl.[Na+]", "note": "[sodium dichloroacetate, Sodium dichloroacetate]", "values": [{"measurement": "adenovirus titer", "setting": "[1]", "value": "Improvement"}, {"measurement": "cell proliferation (viable cell density before dilution on day 3 after seeding)", "setting": "[2]", "value": "slightly inhibited cell proliferation"}, {"measurement": "AAV8 genome titer (relative)", "setting": "[3]; FIG. 2", "value": "improvements"}, {"measurement": "full capsid ratio (relative)", "setting": "[3]; FIG. 3", "value": "improvements"}]}]}
